These results are taken from patent US20260055080A1, “NOVEL SUBSTITUTED QUINOLINE AND TETRAHYDRONAPHTHALENE CARBOXYLIC ACID DERIVATIVES AND THERAPEUTIC USES THEREOF” (SANOFI, priority 2022, published 2026).

In the experiment the target is T1, ERα (Homo sapiens, UniProt P03372).
T1 construct: measured to determine the levels of ERα and DNA respectively; host or cells: MCF7
T1 sequence (P03372 1-595): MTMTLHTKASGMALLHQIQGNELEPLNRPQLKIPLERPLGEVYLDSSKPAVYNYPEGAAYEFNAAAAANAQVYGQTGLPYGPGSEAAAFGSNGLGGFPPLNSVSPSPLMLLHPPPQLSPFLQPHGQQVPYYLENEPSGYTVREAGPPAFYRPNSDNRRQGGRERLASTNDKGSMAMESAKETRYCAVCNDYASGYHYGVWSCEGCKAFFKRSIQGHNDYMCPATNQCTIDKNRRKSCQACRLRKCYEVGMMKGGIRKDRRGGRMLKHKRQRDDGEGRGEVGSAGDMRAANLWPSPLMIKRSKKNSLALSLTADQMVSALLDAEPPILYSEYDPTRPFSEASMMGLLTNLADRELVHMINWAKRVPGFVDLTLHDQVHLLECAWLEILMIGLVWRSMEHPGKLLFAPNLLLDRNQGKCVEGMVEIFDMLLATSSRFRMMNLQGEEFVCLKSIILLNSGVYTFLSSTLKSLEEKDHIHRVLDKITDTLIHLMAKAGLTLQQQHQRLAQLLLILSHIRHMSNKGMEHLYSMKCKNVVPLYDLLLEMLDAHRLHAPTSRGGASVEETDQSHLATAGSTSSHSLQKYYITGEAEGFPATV
As to the kind of experiment: Estrogen receptor degradation activity: breast cancer cell ERα in cell western assay. Type of experiment: cell-based. Conditions: MCF7 cells; for % Degradation At 0.3 μM: 4 hours, relative to fulvestrant 0.1 μM positive control; for DC50: 4 hours post compound addition, concentration which degrades 50% of the estrogen receptor, read-out: Degradation IC50. How it is done:
Test: Estrogen Receptor Degradation Activity
Said test involves measuring the in vitro degradation activity of the compounds of the Table 1.
The measurements of the degradation activities were made using a breast cancer cell ERα in cell western assay as described hereunder.
MCF7 cells (ATCC) were seeded in 384 wells microplate (collagen coated) at a concentration of 10000 cells/30 μL per well in red phenol free MEM alpha medium (invitrogen) containing 5% charcoal dextran striped FBS. The following day, 9 points serial 1:5 dilution of each compound was added to the cells in 2.5 μL at final concentrations ranging from 0.3-0.0000018 μM (in Table 2), or 0.1 μM for fulvestrant (using as positive control). At 4 hours post compound addition the cells were fixed by adding 25 μL of formalin (final concentration 5% formalin containing 0.1% triton) for 10 minutes at room temperature and then washed twice with PBS. Then, 50 μL of LI-COR blocking buffer containing 0.1% Triton was added to plate for 30 minutes at room temperature. LI-COR blocking buffer was removed and cells were incubated overnight at cold room with 50 μL anti-ER rabbit monoclonal antibody (Thermo scientific MA1-39540) diluted at 1:1000 in LI-COR blocking buffer containing 0.1% tween-20. Wells which were treated with blocking buffer but no antibody were used as background control. Wells were washed twice with PBS (0.1% tween-20) and incubated at 37° C. for 60 minutes in LI-COR (0.1% tween-20) containing goat anti-rabbit antibody Alexa 488 (1:1000) and Syto-64 a DNA dye (2 μM final concentration). Cells were then washed 3 times in PBS and scanned in ACUMEN explorer (TTP-Labtech). Integrated intensities in the green fluorescence and red fluorescence were measured to determine the levels of ERα and DNA respectively.
The degradation activity with respect to estrogen receptors in this test is given by the concentration which degrades 50% of the estrogen receptor (or IC50) in nM.
The % of ERα levels decrease were determined as follows: % inhibition=100*(1-(sample-fulvestrant: DMSO-fulvestrant)).

Consider `O=C(O)c1ccc2c(C(=O)c3ccc(OC4CN(CCCF)C4)cc3)c(-c3ccc(C(F)(F)F)cc3F)cnc2c1` [Compound 1], for which the “% Degradation At 0.3 μM” value came to 51% and the DC50 is 0.136 µM.
With `O=C(O)c1ccc2c(C(=O)c3ccc(OCCN4CC(CF)C4)cc3)c(-c3ccc(C(F)(F)F)cc3F)cnc2c1` [Compound 2, 3-(2-fluoro-4-(trifluoromethyl)phenyl)-4-(4-(2-(3-(fluoromethyl)azetidin-1-yl)ethoxy)benzoyl)quinoline-7-carboxylic acid], the “% Degradation At 0.3 μM” value is 62% and the DC50 was found to be 0.196 µM.
As to `CCNCCc1ccc(CN(CC)c2cc(OC)ccc2[C@@H]2CCc3cc(C(=O)O)ccc3C2)cc1` [Compound 3, (R)-6-(2-(ethyl(4-(2-(ethylamino)ethyl)benzyl)amino)-4-methoxyphenyl)-5,6,7,8-tetrahydronaphthalene-2-carboxylic acid], the “% Degradation At 0.3 μM” value is given as 49% and the DC50 was 0.252 µM.
